Measurements from article PMC12095788 (Communications Chemistry, 2025).

Target: T1, Nurr1 LBD homodimer (Homo sapiens, UniProt P43354)
T1 construct: a plasmid construct encoding Nurr1 (aa 364-598) in a pMal vector system; sGFP-Nurr1 LBD protein and sGFP-RXRα LBD[26] were titrated against a fixed concentration of Tb-SA conjugated Nurr1 LBD protein; MBP (cleaved yes); made in house; host or cells: E.coli BL21-R3-pRARE2 (biotinylated Nurr1 LBD)
Experiment: HTRF Nurr1 homodimer formation assay
Type: biochemical

T1 sequence (P43354 364-598 limits assumed): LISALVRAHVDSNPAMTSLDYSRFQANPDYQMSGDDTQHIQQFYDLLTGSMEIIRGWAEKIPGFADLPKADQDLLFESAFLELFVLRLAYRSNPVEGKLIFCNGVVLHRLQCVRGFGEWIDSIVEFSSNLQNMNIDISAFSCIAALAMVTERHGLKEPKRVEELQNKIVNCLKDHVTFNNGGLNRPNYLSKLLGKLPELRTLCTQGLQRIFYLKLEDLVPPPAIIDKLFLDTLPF

O=C(O)C1=C(C(=O)Nc2ccc(-c3ccccc3OCc3ccccc3)cc2F)CCC1 [compound 1, 2-{[2’-(Benzyloxy)-3-fluoro-[1,1’-biphenyl]-4-yl]carbamoyl}cyclopent-1-ene-1-carboxylic acid]
effect on Nurr1 homodimerization: markedly disrupted
